Experimental findings from patent publication US20250250240A1, “PHENAZINE COMPOUND FOR MEASURING BACTERIAL EFFLUX” (priority 2022, published 2025) are described below.

“Also recorded” adds a separate entry of the source.

In test [1] the test system is AcrAB efflux pump. The experiment in a line: Bacterial staining (pellet colour) test for AcrAB efflux pump activity. Format: cell-based, Escherichia coli. Conditions: 1 μg/mL, 15 min. Here is the method:
The experimental protocol is the same as that described in the previous examples, except for the bacterial strains used. Briefly, compounds 29 and 392 (1 μg/mL) were added to 5 mL of a cell suspension of different E. coli strains (OD=1.5), mixed by tilting and left to stand on the table at room temperature for 15 min. The cells were then centrifuged at 3500 rpm for 10 min and rinsed with potassium phosphate buffer (PBP). The cell pellet was washed only once.

A further test relates to PatA-PatB transporter. Nature of the test: Bacterial staining (pellet colour) test on PatA-PatB transporter mutants. Format: cell-based, Streptococcus pneumoniae. Particulars: 1 μg/mL. Here is the method: (§1) Bacterial staining: Bacteria in exponential growth phase are incubated for 15 min in the presence of compound 053. The bacteria are then washed twice in phosphate buffer and centrifuged, with the pellets observed with the naked eye.
(§2) The following protocol was followed: • 1. Grow bacteria on a freshly prepared Muller Hilton-II (MH-II) agar plate. Incubate the Petri dish overnight at 37° C. (Note: Incubation temperature and growth time depend on the bacteria used in the experiment). • 2. The next morning, pick one or two colonies from the overnight plate and inoculate them in an Erlenmeyer flask containing 20 mL MH-II broth. • 3. Incubate the Erlenmeyer on an orbital shaker at 37° C. and 160 rpm for 3-4 hrs. Note: This step allows us to obtain cells in exponential phase, so we need to consider the doubling time of the bacteria used. • 4. After incubation, transfer the cells to a centrifuge tube and centrifuge at 4500 rpm for 10 minutes. Discard supernatant. Add fresh MH-II broth to the centrifuge tube and adjust the optical density of the cells to 0.5. • 5. Transfer an aliquot (5 mL) of cells with adjusted optical density to a new centrifuge tube (50 mL). Add 3.75 μL of compound 053 stock solution (1000 μg/mL) to this tube. Cap the tubes and shake thoroughly to mix the compound. Then keep the centrifuge tube on the table for 15 minutes at room temperature. Note: It is preferable to have a larger surface area to facilitate agitation. […] After 15 minutes contact time, centrifuge the tubes for 10-15 minutes at 4500 rpm to obtain cell pellets and discard supernatant. Using 5 mL of phosphate- or potassium phosphate-buffered saline (PBS, pH7), wash the cell pellets thoroughly (PBS, pH7), repeating this operation twice. Note: Pipette several times with a 5 mL or 1 mL pipette during washing. Make sure there are no lumps during pipetting. The purpose of washing is to remove excess dye from the cell surface. • 7. The color variation in the cells is visible to the naked eye on the cell pellet after the two washes. • a. […]

In test [2] the target is T1, AcrAB efflux pump (Escherichia coli, UniProt P31224).
T1 construct: strain AG100 is the wild-type strain of E. coli (Wild) also showing normal efflux; endogenous in cells; host or cells: Escherichia coli ATCC11775, AG100 (wild type), AG102 (AcrAB overexpressing), AG100A (acrAB deleted)
Nature of the test: Pellet colour test for AcrAB efflux pump activity in strains pretreated with CCCP. Conditions: 1 μg/mL; cells pretreated 1 hr with CCCP 5 μg/mL; EC, AG100, AG100A versus AG102. Format: cell-based. Here is the method:
The inventors also tested compound 053 (1 μg/mL) on the same Escherichia coli strains with varying levels of AcrAB efflux pump expression. The protocol was slightly modified to introduce a pre-treatment step with Carbonyl Cyanide m-Chlorophenylhydrazone (CCCP). CCCP is a chemical inhibitor of oxidative phosphorylation. It interferes with the transmembrane electrochemical gradient and proton-motive force, and consequently reduces ATP production. The effect of CCCP is to reduce the efficiency of efflux pumps, making it easier to perceive differences in staining between different strains.
The experimental protocol is the same as that described in the examples, with the difference that cells are treated for 1 hr with CCCP (5 μg/mL) in phosphate buffer (PPB). After CCP treatment, the whole experiment is run in PPB instead of MH-II broth from step 4 onwards.

Test [3] has as its system NorA efflux pump. Nature of the test: Fluorescence measurement (spectrofluorimetry, excitation 530 nm) of treated bacteria. Format: cell-based, Staphylococcus aureus. Here is the method: (§3) Bacterial strains: The inventors used the following strains of Staphylococcus aureus: • CIP 76.25, a reference strain producing a basal level of NorA, • SA1199, a reference strain producing a basal level of NorA, • SA 1199B, an overproducer of the NorA pump, and • SA K1758 with the NorA gene deleted, (Kaatz et al., 2003, Antimicrob Agents Chemother. 2003 February; 47(2): 719-26).
(§4) Fluorescence measurement: Bacteria in exponential growth phase are incubated for 15 min in the presence of compound 053. The optical density at 600 nm is then adjusted to 0.5 and 50 μL is transferred to a black microtiter plate. Fluorescence is read in a Tecan M200 microplate reader.

For test [4], the system named is NorA efflux pump. The experiment in a line: Bacterial staining (pellet colour) test for NorA efflux pump activity. It counts as cell-based, Staphylococcus aureus. Particulars: 0.75 μg/mL, 15 min. As to the method:
as §3, §1
as §2, with “agitation. The final concentration of 053 used in the experiment is 0.75 μg/mL.” for “agitation.”, “supernatant.” for “supernatant. Using 5 mL of phosphate- or potassium phosphate-buffered saline (PBS, pH7), wash the cell pellets thoroughly (PBS, pH7), repeating this operation twice. Note: Pipette several times with a 5 mL or 1 mL pipette during washing. Make sure there are no lumps during pipetting. The purpose of washing is to remove excess dye from the cell surface. • 7. The color variation in the cells is visible to the naked eye on the cell pellet after the two washes. • a.”

Test [5] has as its target T2, BmrA efflux pump (Bacillus subtilis, UniProt O06967).
T2 construct: endogenous in cells; host or cells: Bacillus subtilis 168 (DSM 402), BmrA+++ overproducer, BmrA deletion strain
Nature of the test: Bacterial staining (pellet colour) test on BmrA efflux pump mutants. It counts as cell-based. Particulars: 0.75 μg/mL. Here is the method:
as §1
as §2, with “agitation. The final concentration of 053 used in the experiment is 0.75 μg/mL.” for “agitation.”

In test [6] the test system is BmrA efflux pump. Described as above. It counts as cell-based, Bacillus subtilis. Conditions: BmrAΔ (BmrA deleted); 0.75 μg/mL. Here is the method: as §1
as §2, with “agitation. The final concentration of 053 used in the experiment is 0.75 μg/mL.” for “agitation.”

The test system of test [7] is NorA efflux pump. The experiment in a line: Relative fluorescence intensity of treated strains fixed with PFA or ethanol. It counts as cell-based, Staphylococcus aureus. Particulars: fixing agent 1% w/v PFA or 70% cold ethanol; CIP 76.25, SA, SA1199B, SA K1758. The source says: (§5) The results are consistent with those obtained previously. […] The inventors also tested the impact that a fixing agent such as 1% w/v paraformaldehyde (PFA) or 70% cold ethanol might have on cells treated with compound 053.

In test [8] the target is T2, BmrA efflux pump. The experiment in a line: Fluorescence measurement (spectrofluorimetry) on BmrA efflux pump mutants. It counts as cell-based. As to the method: as §4
(§6) Bacterial strains: The inventors used • the reference strain Bacillus subtilis 168 (DSM 402) producing a basal level of BmrA, • Bacillus subtilis BmrA+++ overproducing the BmrA pump and • Bacillus subtilis BmrA Δ with the BmrA gene deleted. • (see Steinfels E et al. Biochemistry 43:7491-7502 and Krügel Het al. FEMS Microbiol Lett. 2010 December; 313(2): 155-63).
(§7) The protocols used are identical to those used in example 2-1.

Test [9] deals with BmrA efflux pump. The description is as above. Particulars: pump-free mutant (BmrAΔ). Format: cell-based, Bacillus subtilis. Here is the method:
as §4, §6, §7

Test [10] concerns NorA efflux pump. Nature of the test: Fluorescence reading by flow cytometry of treated bacteria. Format: cell-based, Staphylococcus aureus.
From the text: The inventors also carried out a fluorescence reading by flow cytometry in order to validate the results previously obtained by spectrofluorimetry. Advantageously, flow cytometry considers only the fluorescence within the cell and not surrounding it, thus enabling direct assessment of the concentration of compound 053 within the cell without the need for rinsing.
as §5

Setting [11] is: strain AG100 (wild-type), normal efflux.
Setting [12] is: strain AG102 (AcrAB overexpression).
Where [13] appears, read: strain EC (ATCC11775), normal efflux.
Where [14] appears, read: strain SA 1199B (NorA overproducer).

T2 sequence (O06967 whole entry): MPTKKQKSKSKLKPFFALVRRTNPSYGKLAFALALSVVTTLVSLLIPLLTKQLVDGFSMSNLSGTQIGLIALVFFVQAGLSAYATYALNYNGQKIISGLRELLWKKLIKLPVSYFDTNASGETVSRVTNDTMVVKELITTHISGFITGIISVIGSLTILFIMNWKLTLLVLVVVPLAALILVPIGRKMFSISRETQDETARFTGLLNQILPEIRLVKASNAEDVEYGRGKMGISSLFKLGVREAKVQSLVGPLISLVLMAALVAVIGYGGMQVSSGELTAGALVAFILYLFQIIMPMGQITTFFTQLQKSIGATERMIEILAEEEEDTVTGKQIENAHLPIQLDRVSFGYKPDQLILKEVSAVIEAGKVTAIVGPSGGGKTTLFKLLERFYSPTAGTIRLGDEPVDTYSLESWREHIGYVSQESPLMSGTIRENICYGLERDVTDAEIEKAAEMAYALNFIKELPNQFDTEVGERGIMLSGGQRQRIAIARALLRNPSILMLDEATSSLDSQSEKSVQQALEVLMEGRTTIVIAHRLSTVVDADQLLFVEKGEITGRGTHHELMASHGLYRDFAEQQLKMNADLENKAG
T1 sequence (P0AE06 25-397): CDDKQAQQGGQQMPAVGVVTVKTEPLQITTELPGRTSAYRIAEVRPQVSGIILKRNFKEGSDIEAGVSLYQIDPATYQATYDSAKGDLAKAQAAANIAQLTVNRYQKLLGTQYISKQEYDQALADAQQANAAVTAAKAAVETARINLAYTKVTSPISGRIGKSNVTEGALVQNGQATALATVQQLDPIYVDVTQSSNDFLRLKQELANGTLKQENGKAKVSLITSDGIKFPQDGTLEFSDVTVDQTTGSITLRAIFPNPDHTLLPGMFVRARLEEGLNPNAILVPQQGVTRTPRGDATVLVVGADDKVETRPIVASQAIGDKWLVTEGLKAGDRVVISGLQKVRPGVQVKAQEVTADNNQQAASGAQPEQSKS
T1 sequence (P02930 23-493, further chain): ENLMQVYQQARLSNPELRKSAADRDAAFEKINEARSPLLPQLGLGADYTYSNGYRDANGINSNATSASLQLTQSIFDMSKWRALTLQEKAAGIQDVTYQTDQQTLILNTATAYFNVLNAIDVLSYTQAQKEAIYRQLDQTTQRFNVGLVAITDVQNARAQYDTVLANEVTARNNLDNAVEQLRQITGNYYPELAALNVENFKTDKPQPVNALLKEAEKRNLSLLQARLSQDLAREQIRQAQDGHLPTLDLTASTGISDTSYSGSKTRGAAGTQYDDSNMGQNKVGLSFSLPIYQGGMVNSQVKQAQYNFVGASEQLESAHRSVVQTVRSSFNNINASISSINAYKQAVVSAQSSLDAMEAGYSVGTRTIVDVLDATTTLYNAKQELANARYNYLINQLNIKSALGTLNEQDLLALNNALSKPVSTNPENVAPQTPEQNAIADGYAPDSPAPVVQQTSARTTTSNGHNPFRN
T1 sequence (P31224 whole entry): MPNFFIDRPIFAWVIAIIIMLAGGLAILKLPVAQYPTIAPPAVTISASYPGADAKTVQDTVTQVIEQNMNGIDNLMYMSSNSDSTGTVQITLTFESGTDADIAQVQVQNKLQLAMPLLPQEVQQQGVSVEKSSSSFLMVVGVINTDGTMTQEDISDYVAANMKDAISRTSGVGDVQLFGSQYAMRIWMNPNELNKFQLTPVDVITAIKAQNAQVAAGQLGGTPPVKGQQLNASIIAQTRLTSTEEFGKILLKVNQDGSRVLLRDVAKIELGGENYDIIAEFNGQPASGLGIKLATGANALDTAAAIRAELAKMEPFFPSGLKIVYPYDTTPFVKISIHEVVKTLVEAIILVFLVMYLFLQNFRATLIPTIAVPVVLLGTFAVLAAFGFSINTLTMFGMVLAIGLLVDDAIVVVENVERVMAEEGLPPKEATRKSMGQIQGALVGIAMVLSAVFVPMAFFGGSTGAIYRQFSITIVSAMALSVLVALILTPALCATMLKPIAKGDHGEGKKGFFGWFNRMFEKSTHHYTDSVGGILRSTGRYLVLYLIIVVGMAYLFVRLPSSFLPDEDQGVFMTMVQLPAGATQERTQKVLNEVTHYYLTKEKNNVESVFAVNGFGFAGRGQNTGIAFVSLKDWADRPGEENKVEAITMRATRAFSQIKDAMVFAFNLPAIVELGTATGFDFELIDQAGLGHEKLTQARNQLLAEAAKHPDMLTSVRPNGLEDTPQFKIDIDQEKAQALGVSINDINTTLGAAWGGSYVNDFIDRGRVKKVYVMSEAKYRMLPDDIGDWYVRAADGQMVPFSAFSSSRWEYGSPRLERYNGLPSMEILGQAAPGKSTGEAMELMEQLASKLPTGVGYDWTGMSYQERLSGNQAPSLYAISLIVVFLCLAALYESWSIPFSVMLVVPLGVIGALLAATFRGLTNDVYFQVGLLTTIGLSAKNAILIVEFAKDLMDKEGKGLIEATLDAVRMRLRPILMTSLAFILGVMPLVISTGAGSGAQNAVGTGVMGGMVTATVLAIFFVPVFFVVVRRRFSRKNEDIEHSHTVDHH

With `CCCCCCCC[n+]1c2cc(NCCCC)ccc2nc2cc(NCCOC)c(N)cc21` [compound 392], the “staining of bacteria (pellet colour)” value in the test with AcrAB efflux pump [1] (setting [11]) was “very pale pink”; in the test with AcrAB efflux pump [1] (strain AG100A (acrAB deleted)), “dark pink stain”; with AcrAB efflux pump [1] (setting [12]) it was “unstained”; in the test with AcrAB efflux pump [1] (setting [13]) it was “very pale pink”.
On to `CCCCNc1ccc2nc3cc(NCCC)c(N)cc3[n+](CCCC)c2c1` [compound 29], for which the “staining of bacteria (pellet colour)” value is recorded as “very pale pink” in the test with AcrAB efflux pump [1] (setting [11]), “dark pink stain” in the test on AcrAB efflux pump [1] (strain AG100A (acrAB deleted)), “unstained” in the test with AcrAB efflux pump [1] (setting [12]) and “very pale pink” in the test on AcrAB efflux pump [1] (setting [13]).
Take `CCCCNc1ccc2nc3cc(NCCOC)c(N)cc3[n+](CCC)c2c1` [compound 053]: the “colour of bacterial pellet” value with PatA-PatB transporter (DEL strain (PatA-PatB deleted)) was “dark pink”; in the test on PatA-PatB transporter (OVP strain (overexpressing PatA-PatB)), “white”; with PatA-PatB transporter (WT strain (basal PatA-PatB)), “dark pink”; in the test with NorA efflux pump [4] (strain CIP 76.25 (reference, basal NorA)) it was “Intermediate colors; also recorded: intermediate pale pink”; with NorA efflux pump [4] (setting [14]) it was “No coloration; also recorded: white/off-white”; in the test with NorA efflux pump [4] (strain SA K1758 (NorA deleted)), “bright dark pink”. For the same compound, the “colour of bacterial pellet” value on BmrA efflux pump [5] (BmrA+++ (overexpressing BmrA)) is “white; also recorded: No coloration”; on BmrA efflux pump [5] (wild-type B. subtilis 168 (DSM 402)) it was “Intermediate pale pink”; in the test on BmrA efflux pump [6], “dark pink”. At AcrAB efflux pump [2], the “visual distinction of strains by pellet staining” value is “visually possible to distinguish”. Further, the “fluorescence of treated bacteria” value is “intermediate levels of fluorescence” in the test on NorA efflux pump [3] (strain CIP 76.25 (low NorA level)); “intermediate levels of fluorescence” in the test with NorA efflux pump [3] (strain SA 1199 (low NorA level)); “almost nil” in the test on NorA efflux pump [3] (setting [14]); “high fluorescence” in the test on NorA efflux pump [3] (strain SA K1758 (NorA pump-free mutant)); “almost nil” on BmrA efflux pump [8] (overproducing strain (BmrA+++)); “intermediate levels of fluorescence” at BmrA efflux pump [8] (wild-type strain (DSM 402)). Further, the “fluorescence of treated bacteria” value with BmrA efflux pump [9] is “very high”. Also, the “efflux differential between strains after fixation” value with NorA efflux pump [7] is “efflux differential between the different strains remains visible”. The “accumulation in cells (fluorescence intensity by flow cytometry)” value in the test on NorA efflux pump [10] (NorA-overexpressing strain SA1199B) was “accumulated very little”; in the test with NorA efflux pump [10] (norA-deleted strain SA K1758), “accumulated heavily”; with NorA efflux pump [10] (reference strain SA) it was “accumulated moderately”; with NorA efflux pump [10] (wild-type strain CIP 76.25) it was “accumulated moderately”.
